Our source for the inhibition and EC50 values is patent US10287267B2, “Isoquinolin-3-yl carboxamides and preparation and use thereof” (Samumed, LLC, priority 2016, dated 2019).

For one assay, the system named is IL-6. The experiment in a line: IL-6 inhibition in LPS-stimulated human peripheral blood mononuclear cells (HTRF).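 As to all read-outs here: IL-6 detected by HTRF with an XL665- and Cryptate-labelled anti-IL-6 antibody pair, samples run in duplicate, EC50 obtained from a four-parameter Levenberg-Marquardt curve fit.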 In kind it is cell-based. The conditions noted are these: Homo sapiens, PBMC; for inhibition at 10 µM: read-out: percent value in parentheses beside EC50 >10 μM; for EC50: Table 9, huPBMCs, LPS 50 ng/mL, 22 hours, dose-response starting from 10 μM. For orientation: TR-FRET usually uses a lanthanide donor and a delayed reading to cut background.

For another assay, the target named is recombinant GSK3β kinase (Homo sapiens (Human), UniProt P49841). The experiment in a line: GSK3β kinase assay (Ser/Thr 09 peptide Z-lyte FRET).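 Also: kinase activity read as coumarin to fluorescein emission ratio, 11-point threefold dilutions from 10 µM to 0.0003 µM in duplicate, unphosphorylated and phosphorylated peptide as 0% and 100% controls.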 The assay is classed as biochemical. The following applies: 46 μM ATP, 1 h room temperature.
The subject of assay [1] is SW480 colon carcinoma cells. The experiment in a line: Cell viability assay (CellTiter-Glo). In kind it is cell-based, human. The following applies: Homo sapiens; for EC50: 96 h, SW480 cells, CellTiter-Glo, four days incubation; for inhibition at 10 µM: SW480, read-out: percent inhibition at 10 μM.
The subject of assay [2] is Wnt pathway (Sp5-Luc reporter, TCF/LEF binding sites) in SW480 colon carcinoma cells. The experiment in a line: Screening assay for Wnt activity: Sp5-Luc reporter gene assay.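 As to all read-outs here: firefly luciferase luminescence read in stably transduced SW480 cells carrying the Sp5 promoter reporter with eight TCF/LEF sites, compounds given in 0.1% DMSO final.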 The assay is classed as cell-based, human. The following applies: Homo sapiens; for EC50: Sp5-Luc reporter, SW480 cells, 36 to 48 hours; for inhibition at 10 µM: SW480, read-out: percent inhibition at 10 μM. Background: Reporter assays use an easily measured gene product as a stand-in for the process of interest.
Description: The screening assay for Wnt activity is described as follows.
Following incubation, 15 μl of BriteLite Plus luminescence reagent (Perkin Elmer) was added to each well of the 384-well assay plates. The plates were placed on an orbital shaker for 2 min and then luminescence was quantified using the Envision (Perkin Elmer) plate reader.

Assay [3] addresses recombinant DYRK1A kinase (Homo sapiens (Human), UniProt Q13627). The experiment in a line: DYRK1A kinase assay (Ser/Thr 18 peptide Z-lyte FRET).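 Also: Read-out is the coumarin to fluorescein emission ratio, referenced to unphosphorylated (0%) and phosphorylated (100%) Ser/Thr 18 peptide controls, values from dose-response curves by non-linear regression.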 In kind it is biochemical. The conditions noted are these: 30 μM ATP, 1 h room temperature.
In assay [4] the test system is Tau phosphorylation at Ser396 (pSer396). The experiment in a line: Tau phosphorylation assay (pSer396 ELISA / western blot) in SH-SY5Y cells.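 Also: EC50 for reduction of Tau pSer396 in lysed cells, measured by colorimetric ELISA or chemiluminescent western blot, both using the same pSer396 antibody.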 The assay is classed as cell-based, human. In general terms: ELISA stands for enzyme-linked immunosorbent assay.
For assay [5], the system named is α-smooth muscle actin (αSMA) positive LL29 cells. The experiment in a line: Inhibition of fibrotic process: αSMA in TGF-β1 treated primary human fibroblasts from IPF patients.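 Also: controls were TGF-β1 stimulated wells with DMSO vehicle (positive) and cells given DMSO alone (negative), cultured in F12 medium with 1% fetal bovine serum.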 In kind it is cell-based. The conditions noted are these: Homo sapiens, Fibroblast, 96 h; Table 8; LL29 fibroblasts from IPF patients, TGF-β1 20 ng/mL, 4 days; dose-response 10 μM to 0.94 nM.

Where [6] appears, read: Homo sapiens, SH-SY5Y cells, overnight (16-18 h) exposure, read-out: pSer396 Tau EC50.

SMILES strings stand for the structures. Read-outs that look alike come from different tables or passages of the source.

recombinant GSK3β kinase, sequence (P49841 whole entry): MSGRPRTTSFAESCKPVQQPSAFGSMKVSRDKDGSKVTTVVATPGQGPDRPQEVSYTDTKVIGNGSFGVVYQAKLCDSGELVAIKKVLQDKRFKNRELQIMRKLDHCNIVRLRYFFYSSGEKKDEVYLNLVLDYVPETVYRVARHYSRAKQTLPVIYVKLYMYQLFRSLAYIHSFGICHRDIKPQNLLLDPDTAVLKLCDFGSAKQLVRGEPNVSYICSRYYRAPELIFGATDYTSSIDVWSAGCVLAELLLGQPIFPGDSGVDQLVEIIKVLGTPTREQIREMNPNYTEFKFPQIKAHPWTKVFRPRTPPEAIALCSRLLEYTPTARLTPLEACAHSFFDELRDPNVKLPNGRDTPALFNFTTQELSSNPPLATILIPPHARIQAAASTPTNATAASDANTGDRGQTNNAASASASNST
Description for IL-6: After 22 hour incubation, a mixture of anti-IL6 XL665 and anti-IL-6 Cryptate diluted in reconstitution buffer (Catalog #62IL6PEC, Cisbio Inc., Bedford, Mass.) was added to each well. […] All samples were processed in duplicate. […] EC50 was determined using software generated by Dotmatics Limited (Windhill Bishops Stortford Herts, UK) using the Levenberg-Marquardt 4 parameter fitting procedure with finite different gradients.

In general, EC50 refers to the midpoint of the concentration-response curve. As for `Cc1nnc(-c2ccc3cnc(NC(=O)CN4C5CCC4CC5)cc3c2)s1` [Compound 959, 2-(7-Azabicyclo[2.2.1]heptan-7-yl)-N-(6-(5-methyl-1,3,4-thiadiazol-2-yl)isoquinolin-3-yl)acetamide], the results for the inhibition at 10 µM (with IL-6; in assay [1]) were 6.1% and 45%, respectively. In addition, the concentration giving a half-maximal response (EC50) with IL-6 was more than 10000 nM; on recombinant GSK3β kinase, 45 nM; in assay [1], more than 10000 nM; in assay [2], 4240 nM; in assay [3], 15.4 nM; in assay [4] (Homo sapiens, SH-SY5Y, read-out: pSer396 Tau EC50), 443 nM.

With `Cn1cc(-c2ccc3cnc(NC(=O)N4CN5CCC[C@@H]5C4=O)cc3c2)cn1` [Compound 362, (R)—N-(6-(1-Methyl-1H-pyrazol-4-yl)isoquinolin-3-yl)-1-oxotetrahydro-1H-pyrrolo[1,2-c]imidazole-2(3H)-carboxamide], the EC50 in the assay on IL-6 worked out at 9150 nM; on recombinant GSK3β kinase, 1100 nM; in assay [1], 5480 nM; in assay [2] it was 951 nM; in assay [3] it was 132 nM; in assay [5] it was 782 nM.

For the molecule `COC1CCN(CC(=O)Nc2cc3cc(-c4cnn(C)c4)ccc3cn2)CC1` [Compound 1077, 2-(4-Methoxypiperidin-1-yl)-N-(6-(1-methyl-1H-pyrazol-4-yl)isoquinolin-3-yl)acetamide], the EC50 is 3170 nM with IL-6; 32 nM on recombinant GSK3β kinase; 5250 nM in assay [1]; 5190 nM in assay [2]; 4.5 nM in assay [3]; 425 nM in assay [4] (setting [6]).

With `COC(=O)[C@H]1CC[C@H](C(=O)Nc2cc3cc(-c4cnn(C)c4)ccc3cn2)CC1` [Compound 1084, Methyl trans-4-((6-(1-methyl-1H-pyrazol-4-yl)isoquinolin-3-yl)carbamoyl) cyclohexane-1-carboxylate], the EC50 with IL-6 was 752 nM; at recombinant GSK3β kinase, 40 nM; in assay [1] it was 3670 nM; in assay [2] it was 3410 nM; in assay [3], 1.7 nM.

For `[2H]C([2H])(C(=O)Nc1cc2cc(-c3nnc(C)s3)ccc2cn1)N1CCOCC1` [Compound 1051, N-(6-(5-Methyl-1,3,4-thiadiazol-2-yl)isoquinolin-3-yl)-2-morpholinoacetamide-2,2-d2], the EC50 at recombinant GSK3β kinase is 9 nM; in assay [1], more than 10000 nM; in assay [2], 480 nM; in assay [3], 14.6 nM; in assay [4] (setting [6]), 147 nM. The inhibition at 10 µM in assay [1] came to 22.5%.

As to `Cn1cc(-c2ccc3cnc(NC(=O)C4CCN(S(C)(=O)=O)CC4)cc3c2)cn1` [Compound 330, N-(6-(1-Methyl-1H-pyrazol-4-yl)isoquinolin-3-yl)-1-(methylsulfonyl) piperidine-4-carboxamide], the half-maximal effective concentration (EC50) was found to be 1160 nM with IL-6; 6780 nM in assay [1]; 449 nM in assay [2]; 20 nM in assay [5]; 246 nM in assay [4] (setting [6]).

For the molecule `CC(C)CN1CCC(F)(C(=O)Nc2cc3cc(-n4nccn4)ccc3cn2)CC1` [Compound 1073, N-(6-(2H-1,2,3-triazol-2-yl)isoquinolin-3-yl)-4-fluoro-1-isobutylpiperidine-4-carboxamide], the values for the inhibition at 10 µM (in the assay on IL-6; in assay [1]; in assay [2]) were 3.3%, 8.5% and 5.9%, respectively. For the same molecule, the concentration giving a half-maximal response (EC50) in the assay on IL-6 was more than 10000 nM; at recombinant GSK3β kinase it was more than 10000 nM; in assay [1] it was more than 10000 nM; in assay [2] it was more than 10000 nM; in assay [3], 1520 nM; in assay [5] it was more than 10000 nM.

For `[2H]c1nc(NC(=O)C2CCNCC2)cc2cc(-c3cnn(C)c3)ccc12` [Compound 1085, N-(6-(1-Methyl-1H-pyrazol-4-yl)isoquinolin-3-yl-1-d)piperidine-4-carboxamide], the EC50 is 453 nM in the assay with IL-6; 83 nM at recombinant GSK3β kinase; 1240 nM in assay [1]; 2200 nM in assay [2]; 2.4 nM in assay [3].

With `CC#CC(=O)Nc1cc2cc(-c3cnn(C)c3)ccc2cn1` [Compound 1026, N-(6-(1-Methyl-1H-pyrazol-4-yl)isoquinolin-3-yl)but-2-ynamide], the EC50 with IL-6 worked out at 9520 nM; at recombinant GSK3β kinase it was 508 nM; in assay [1], 554 nM; in assay [2], 513 nM; in assay [3], 5 nM; in assay [5], 2260 nM.

As for `[2H]c1nc(NC(=O)CN2CCCC2)cc2cc(-c3cnn(C)c3)ccc12` [Compound 1093, N-(6-(1-Methyl-1H-pyrazol-4-yl)isoquinolin-3-yl-1-d)-2-(pyrrolidin-1-yl) acetamide], the concentration giving a half-maximal response (EC50) is 47 nM at recombinant GSK3β kinase, 1780 nM in assay [2], 11.7 nM in assay [3] and 422 nM in assay [4] (setting [6]).

For the molecule `CN1CCC(n2cc(-c3ccc4cnc(NC(=O)C5CCCCC5)cc4c3)cn2)CC1` [Compound 969, N-(6-(1-(1-Methylpiperidin-4-yl)-1H-pyrazol-4-yl)isoquinolin-3-yl) cyclohexanecarboxamide], the EC50 amounted to 9120 nM in the assay on IL-6; 7610 nM on recombinant GSK3β kinase; 2880 nM in assay [1]; 3930 nM in assay [2]; 50 nM in assay [3]; 935 nM in assay [5].

For `CCN1/C(=C/C(C)=O)Sc2ccc(O)cc21` [Indy, reference compound], the 50% effective concentration (EC50) in assay [4] (control DYRK1A inhibitors, SH-SY5Y cells, read-out: EC50 in the Tau assay) is more than 10000 nM.

On to `CN1CCN(C(=O)[C@H]2CC[C@H](C(=O)Nc3cc4cc(-c5cnn(C)c5)ccc4cn3)CC2)CC1` [Compound 1091, trans-N-(6-(1-Methyl-1H-pyrazol-4-yl)isoquinolin-3-yl)-4-(4-methylpiperazine-1-carbonyl)cyclohexane-1-carboxamide], for which the EC50 worked out at 69 nM on recombinant GSK3β kinase; 1250 nM in assay [1]; 2950 nM in assay [2]; 1.4 nM in assay [3]; 869 nM in assay [4] (setting [6]).

Take `Cn1cc(-c2ccc3cnc(NC(=O)[C@H]4CC[C@H](C(=O)O)CC4)cc3c2)cn1` [Compound 1032, trans-4-((6-(1-Methyl-1H-pyrazol-4-yl)isoquinolin-3-yl)carbamoyl) cyclohexane-1-carboxylic acid]: the EC50 with IL-6 was 3320 nM; at recombinant GSK3β kinase, 72 nM; in assay [1] it was more than 10000 nM; in assay [2], more than 10000 nM; in assay [3] it was 1.2 nM. Moreover, the inhibition at 10 µM in assay [1] was 34.7%; in assay [2] it was 27.4%.

As for `[2H]C1([2H])OC([2H])([2H])C([2H])([2H])N(CC(=O)Nc2cc3cc(-c4nnc(C)s4)ccc3cn2)C1([2H])[2H]` [Compound 1052, N-(6-(5-Methyl-1,3,4-thiadiazol-2-yl)isoquinolin-3-yl)-2-(morpholino-d8) acetamide], the EC50 on recombinant GSK3β kinase is 11 nM; in assay [1] it was more than 10000 nM; in assay [2], 2280 nM; in assay [3] it was 18 nM; in assay [4] (setting [6]), 254 nM. Further, the inhibition at 10 µM in assay [1] amounted to 40.7%.

For the molecule `O=C(CN1CCCC1)Nc1cc2cc(-c3cn[nH]c3C(F)(F)F)ccc2cn1` [Compound 287, 2-(Pyrrolidin-1-yl)-N-(6-(5-(trifluoromethyl)-1H-pyrazol-4-yl)isoquinolin-3-yl)acetamide], the EC50 was 9580 nM in the assay on IL-6; 9840 nM on recombinant GSK3β kinase; more than 10000 nM in assay [1]; 7330 nM in assay [2]; 5140 nM in assay [3]; 2350 nM in assay [5]. Moreover, the inhibition at 10 µM in assay [1] is 47.8%.

Take `CC(C)CN1CCC(C(=O)Nc2cc3cc(-c4nnnn4C)ccc3cn2)CC1` [Compound 1092, 1-Isobutyl-N-(6-(1-methyl-1H-tetrazol-5-yl)isoquinolin-3-yl)piperidine-4-carboxamide]: the EC50 stood at 132 nM at recombinant GSK3β kinase; 2980 nM in assay [1]; 247 nM in assay [2]; 62.7 nM in assay [3]; 131 nM in assay [4] (setting [6]).

`Cc1ncc(-c2ccc3cnc(NC(=O)C4CCCCC4)cc3c2)n1C` [Compound 120, N-(6-(1,2-Dimethyl-1H-imidazol-5-yl)isoquinolin-3-yl) cyclohexanecarboxamide]: the half-maximal effective concentration (EC50) in the assay with IL-6 stood at 2290 nM; on recombinant GSK3β kinase, 138 nM; in assay [1], 2490 nM; in assay [2], 2200 nM; in assay [3] it was 4.8 nM; in assay [5], 2130 nM.

In the case of `Cc1nnc(-c2ccc3cnc(NC(=O)CN4CCOC[C@H]4C)cc3c2)s1` [Compound 953, (R)—N-(6-(5-Methyl-1,3,4-thiadiazol-2-yl)isoquinolin-3-yl)-2-(3-methylmorpholino)acetamide], the 50% effective concentration (EC50) at recombinant GSK3β kinase was 23 nM; in assay [1], more than 10000 nM; in assay [2], more than 10000 nM; in assay [3], 16.8 nM; in assay [4] (setting [6]), 398 nM. Further, the results for the inhibition at 10 µM in assay [1] and in assay [2] were 40.3% and 48.7%, respectively.

Consider `Cn1cc(-c2ccc3cnc(NC(=O)C45CC(CO)(C4)C5)cc3c2)cn1` [Compound 1083, 3-(Hydroxymethyl)-N-(6-(1-methyl-1H-pyrazol-4-yl)isoquinolin-3-yl) bicyclo[1.1.1]pentane-1-carboxamide], for which the EC50 in the assay on IL-6 amounted to 8730 nM; on recombinant GSK3β kinase, 914 nM; in assay [1], 901 nM; in assay [2], 8210 nM; in assay [3], 4.2 nM.
